Data taken from patent publication US6149912A (priority 1998, dated 2000).
Like-named read-outs stand apart in the source and are kept apart here.

Key:
S. typhimurium SL1344 [1] = assay type: in vivo, Salmonella typhimurium (in CF-1 mice); settings: for protective activity against bacterial infection (in words): glycoalkaloid vs aglycon, 8 LD50 i.p.; for survival, illness, weight loss and infection after multiple treatment (in words): multiple i.p. treatment, 5 days after infection / 12 day observation; for animals protected against massive doses: single or multiple injections, 25 LD50 i.p.
S. typhimurium = settings: mouse, in vivo; cited from earlier work
[2] = in vivo; cited from earlier work
mice = settings: cited from earlier work
S. typhimurium SL1344 [3] = system: S. typhimurium SL1344; parameters: species or system Salmonella typhimurium (in CF-1 mice); settings: mouse, in vivo
[4] = LD50 (acute toxicity) in mice; settings: mouse, in vivo, 0.03-0.3 mg/kg vs LD50 42 mg/kg, read-out: effective dose relative to LD50 (times lower)
[5] = solanine 1 μg, solanidine or diosgenin 0.5 μg/mouse, inguinal pocket, 5 days before i.p. challenge (1.2 × 10^3 CFU, 8 LD50), 5 days post challenge
[6] = solanine 1 μg, solanidine or diosgenin 0.5 μg/mouse, inguinal pocket, 5 days before i.p. challenge (8 LD50), 5 days post challenge
[7] = 1 μg (or 0.5 μg + 0.5 μg) i.p. 3 times every other day before i.p. challenge (3.5 × 10^3 CFU, 25 LD50), 5 days post challenge
[8] = 1 μg (or 0.5 μg + 0.5 μg) i.p. 3 times every other day before i.p. challenge (25 LD50), 5 days post challenge, p < 0.001 vs control
[9] = single 1 μg dose five days prior to challenge with 25 LD50

C[C@H]1CC[C@@H]2[C@@H](C)[C@H]3[C@H](C[C@H]4[C@@H]5CC=C6C[C@@H](O)CC[C@]6(C)[C@H]5CC[C@]34C)N2C1 [solanidine, reference compound]
protective activity against bacterial infection (in words) (S. typhimurium SL1344 [1]): Neither solanidine nor diosgenin possessed any protective activity | Survival rate (S. typhimurium SL1344 [1]; [5]): 3/10 | Liver Culture (S. typhimurium SL1344 [1]; [6]): 5.3 ± 2.4 CFU/500 mg × 10^6 | Spleen Culture (S. typhimurium SL1344 [1]; [6]): 1.7 ± 0.6 CFU/100 mg × 10^6

C[C@@H]1CC[C@@]2(OC1)O[C@H]1C[C@H]3[C@@H]4CC=C5C[C@@H](O)CC[C@]5(C)[C@H]4CC[C@]3(C)[C@H]1[C@@H]2C [diosgenin, reference compound]
protective activity against bacterial infection (in words) (S. typhimurium SL1344 [1]): Neither solanidine nor diosgenin possessed any protective activity | Survival rate (S. typhimurium SL1344 [1]; [5]): 4/10 | Liver Culture (S. typhimurium SL1344 [1]; [6]): 8.5 ± 3.3 CFU/500 mg × 10^6 | Spleen Culture (S. typhimurium SL1344 [1]; [6]): 4.8 ± 1.8 CFU/100 mg × 10^6

CC(=O)N[C@H]1C(O)O[C@H](CO)[C@@H](O)[C@@H]1O[C@H](C)C(=O)N[C@@H](C)C(=O)N[C@H](CCC(=O)O)C(N)=O (some centres unmarked) [muramyldipeptide]
mice protected (S. typhimurium): 50%

C[C@H]1CC[C@@H]2[C@@H](C)[C@H]3[C@H](C[C@H]4[C@@H]5CC=C6C[C@@H](O[C@@H]7O[C@H](CO)[C@H](O)[C@H](O[C@@H]8O[C@H](CO)[C@@H](O)[C@H](O)[C@H]8O)[C@H]7O[C@@H]7O[C@@H](C)[C@H](O)[C@@H](O)[C@H]7O)CC[C@]6(C)[C@H]5CC[C@]34C)N2C1 [solanine]
poisoning [2]: can cause poisoning | LD50 (mice): 42 mg/kg | LD50 (mice; listed as Solanine): 40 to 50 mg/kg | Fecal Culture (S. typhimurium SL1344 [3]): 20.0 ± 3.5 | Liver Culture (S. typhimurium SL1344 [3]): 0.3 ± 0.1 | Spleen Culture (S. typhimurium SL1344 [3]): 2.0 ± 0.2 | Survival rate (S. typhimurium SL1344 [3]): 5/5 | Survival rate (S. typhimurium SL1344 [1]; [7]): 8/8 | Liver Culture (S. typhimurium SL1344 [1]; [8]): 0.08 ± 0.07 CFU/500 mg × 10^6 | Spleen Culture (S. typhimurium SL1344 [1]; [8]): 0.08 ± 0.02 CFU/100 mg × 10^6 | protective activity against bacterial infection (in words) (S. typhimurium SL1344 [1]): only solanine was able to effectively protect mice against the bacterial infection | survival, illness, weight loss and infection after multiple treatment (in words) (S. typhimurium SL1344 [1]; 25 LD50): no signs of illness or weight loss during a 12 day observation period | Survival rate (S. typhimurium SL1344 [1]; [9]): approximately 40% | animals with enhanced resistance to infection (FIG. 1) (S. typhimurium SL1344 [1]; single 0.1, 1.0 or 10.0 μg, challenge (25 LD50) 1, 7 or 14 days later): 40-70% | animals protected against massive doses (S. typhimurium SL1344 [1]): sixty to a hundred percent of the animals were protected | duration of enhanced host resistance (S. typhimurium SL1344 [1]; single treatment, 1.0 and 10.0 μg, 25 LD50): at least 2 weeks | Survival rate (S. typhimurium SL1344 [1]; [5]): 9/10 | Liver Culture (S. typhimurium SL1344 [1]; [6]): 0.8 ± 0.5 CFU/500 mg × 10^6 | Spleen Culture (S. typhimurium SL1344 [1]; [6]): 0.8 ± 0.5 CFU/100 mg × 10^6

C[C@H]1CC[C@@H]2[C@@H](C)[C@H]3[C@H](C[C@H]4[C@@H]5CC=C6C[C@@H](O[C@@H]7O[C@H](CO)[C@@H](O[C@@H]8O[C@@H](C)[C@H](O)[C@@H](O)[C@H]8O)[C@H](O)[C@H]7O[C@@H]7O[C@@H](C)[C@H](O)[C@@H](O)[C@H]7O)CC[C@]6(C)[C@H]5CC[C@]34C)N2C1 [chaconine]
poisoning [2]: can cause poisoning | therapeutic index (LD50 / effective dose) [4]: 100 to 1000 | LD50 (mice): 42 mg/kg | LD50 (mice; listed as Chaconine): 40 to 50 mg/kg | Survival rate (S. typhimurium SL1344 [1]; [7]): 8/8 | Liver Culture (S. typhimurium SL1344 [1]; [8]): 0.12 ± 0.09 CFU/500 mg × 10^6 | Spleen Culture (S. typhimurium SL1344 [1]; [8]): 0.03 ± 0.01 CFU/100 mg × 10^6 | survival, illness, weight loss and infection after multiple treatment (in words) (S. typhimurium SL1344 [1]; 25 LD50): no signs of illness or weight loss during a 12 day observation period | Survival rate (S. typhimurium SL1344 [1]; [9]): ~75% | animals protected against massive doses (S. typhimurium SL1344 [1]): sixty to a hundred percent of the animals were protected
